# Measurements from US20140249135A1, “PIM KINASE INHIBITORS AND METHODS OF THEIR USE” (NOVARTIS AG, priority 2007, published 2014).
# Like-named read-outs stand apart in the source and are kept apart here.
# Columns and labels:
# Assay type in all cases: biochemical
# [1] = biological target: Pim2 kinase (Homo sapiens, UniProt Q9P1W9); assay: Pim2 ATP depletion assay;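 also: Luciferase-based luminescent readout of ATP remaining after PIM2 phosphorylates a BAD peptide, final 5 nM enzyme, 4 µM ATP, 10 µM peptide, 2.5% DMSO, run to roughly half ATP consumption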
# Pim2 kinase, sequence (Q9P1W9 whole entry): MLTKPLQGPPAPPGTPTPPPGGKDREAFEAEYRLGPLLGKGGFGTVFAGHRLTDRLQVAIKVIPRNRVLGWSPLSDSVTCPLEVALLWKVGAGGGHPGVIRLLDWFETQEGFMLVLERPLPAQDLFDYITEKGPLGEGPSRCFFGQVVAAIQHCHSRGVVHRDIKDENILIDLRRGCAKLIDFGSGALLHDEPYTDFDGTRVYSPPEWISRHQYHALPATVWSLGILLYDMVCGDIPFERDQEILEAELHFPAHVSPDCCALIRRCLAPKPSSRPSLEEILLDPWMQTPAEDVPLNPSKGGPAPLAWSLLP
# [2] = biological target: Pim3 kinase (Homo sapiens, UniProt Q86V86); assay: Pim3 ATP depletion assay
# [3] = biological target: Pim1 kinase (Homo sapiens, UniProt P11309); assay: Pim1 ATP depletion assay; settings: Pim1 ATP depletion assay;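 also: Luciferase-luciferin luminescence readout of residual ATP after PIM1 transfers phosphate to a peptide substrate, 40 µM ATP added, reaction run to roughly half ATP consumption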
# Pim1 kinase, sequence (P11309 whole entry): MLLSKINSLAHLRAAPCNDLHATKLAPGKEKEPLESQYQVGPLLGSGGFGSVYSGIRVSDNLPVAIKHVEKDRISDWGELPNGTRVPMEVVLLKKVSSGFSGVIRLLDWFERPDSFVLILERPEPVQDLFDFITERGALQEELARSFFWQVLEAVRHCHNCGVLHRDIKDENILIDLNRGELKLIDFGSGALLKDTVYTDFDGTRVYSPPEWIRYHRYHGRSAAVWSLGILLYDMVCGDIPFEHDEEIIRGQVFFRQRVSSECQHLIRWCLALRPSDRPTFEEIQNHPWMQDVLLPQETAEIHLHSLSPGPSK
SMILES,IC50 ([1]; read-out: IC50 (μM) PIM2),IC50 ([2]; read-out: IC50 (μM) PIM3),IC50 ([3]; read-out: IC50 (μM) PIM1),IC50 ([1]; read-out: PIM2 IC50),IC50 ([2]; read-out: PIM3 IC50),IC50 ([3]; read-out: PIM1 IC50)
"Cc1cccc(C)c1-c1nc(C(=O)Nc2cnccc2N2CCC[C@H](N)C2)c(N)cc1F [Example 509, 3-Amino-6-(2,6-dimethyl-phenyl)-5-fluoro-pyridine-2-carboxylic acid (3-amino-3,4,5,6-tetrahydro-2H-[1,4′]bipyridinyl-3′-yl)-amide]",< 1 µM,< 1 µM,< 1 µM,,,
"CC(C)NC(=O)c1ccc(F)c(-c2ccc(N)c(C(=O)Nc3cnccc3N3C[C@@H](N)C[C@H](O)C3)n2)c1 [Example 296, 3-Amino-6-(2-fluoro-5-isopropylcarbamoyl-phenyl)-pyridine-2-carboxylic acid (3-amino-5-hydroxy-3,4,5,6-tetra-hydro-2H-[1,4′]bipyridinyl-3′-yl)-amide]",< 1 µM,< 1 µM,< 1 µM,,,
"N[C@H]1C[C@@H](O)CN(c2ccncc2NC(=O)c2ccc(F)c(-c3ccccc3F)n2)C1 [Example 684, 5-Fluoro-6-(2-fluoro-phenyl)-pyridine-2-carboxylic acid (5-amino-3-hydroxy-3,4,5,6-tetra-hydro-2H-[1,4′]bipyridinyl-3′-yl)-amide]",,,,< 1 µM,< 1 µM,< 1 µM
"Cc1ccccc1-c1ccncc1NC(=O)c1nc(-c2c(F)cccc2F)ccc1N [Example 585, 3-amino-6-(2,6-difluoro-phenyl)-pyridine-2-carboxylic acid (4-o-tolyl-pyridin-3-yl)-amide]",,,,< 1 µM,< 1 µM,< 1 µM
"Cc1nc(N)cc(-c2ccncc2NC(=O)c2nc(-c3c(F)cccc3F)ccc2N)n1 [Example 274, 3-Amino-6-(2,6-difluoro-phenyl)-pyridine-2-carboxylic acid [4-(6-amino-2-methyl-pyrimidin-4-yl)-pyridin-3-yl]-amide]",< 1 µM,< 1 µM,< 1 µM,,,
"Nc1ccc(-c2c(F)cccc2F)nc1C(=O)Nc1cnccc1N1C[C@@H](N)C[C@@H](O)C1 [Example 672, 3-Amino-6-(2,6-difluoro-phenyl)-pyridine-2-carboxylic acid (3-amino-5-hydroxy-3,4,5,6-tetrahydro-2H-[1,4′]bi-pyridinyl-3′-yl)-amide]",,,,< 1 µM,< 1 µM,< 1 µM
"Nc1ccc(-c2cc(C(F)(F)F)ccn2)nc1C(=O)Nc1cnccc1N1CCC[C@H](N)C1 [Example 715, 5-Amino-4′-trifluoromethyl-[2,2′]bipyridinyl-6-carboxylic acid (3-amino-3,4,5,6-tetra-hydro-2H-[1,4′]bipyridinyl-3′-yl)-amide]",,,,< 1 µM,< 1 µM,< 1 µM
"Cc1cc(-c2ccncc2NC(=O)c2nc(-c3ccccc3)ncc2N)cc(N)n1 [Example 269, 5-Amino-2-phenyl-pyrimidine-4-carboxylic acid (6′-amino-2′-methyl-[4,4′]bipyridinyl-3-yl)-amide]",< 1 µM,< 1 µM,< 1 µM,,,
"Nc1ccc(-c2cccc(OCc3ccccc3)n2)nc1C(=O)Nc1cnccc1N1CCC[C@H](N)C1 [Example 695, 5-Amino-6′-benzyloxy-[2,2′]bi-pyridinyl-6-carboxylic acid (3-amino-3,4,5,6-tetrahydro-2H-[1,4′]bipyridinyl-3′-yl)-amide]",,,,< 1 µM,< 1 µM,< 1 µM
"Nc1cc(F)c(-c2cccc(S(N)(=O)=O)c2)nc1C(=O)Nc1cnccc1N1CCC[C@H](N)C1 [Example 497, 3-Amino-5-fluoro-6-(3-sulfamoyl-phenyl)-pyridine-2-carboxylic acid (3-amino-3,4,5,6-tetrahydro-2H-[1,4′]bipyridinyl-3′-yl)-amide]",< 1 µM,< 1 µM,< 1 µM,,,
"Nc1cc(F)c(-c2ncccc2Cl)nc1C(=O)Nc1cnccc1N1CCC[C@H](N)C1 [Example 743, 5-Amino-3′-chloro-3-fluoro-[2,2′]bipyridinyl-6-carboxylic acid (3-amino-3,4,5,6-tetra-hydro-2H-[1,4′]bipyridinyl-3′-yl)-amide]",,,,< 1 µM,< 1 µM,< 1 µM
"COc1cccc(-c2ccc(N)c(C(=O)Nc3cnccc3N3CCC[C@H](N)C3)n2)c1F [Example 471, 3-Amino-6-(2-fluoro-3-methoxy-phenyl)-pyridine-2-carboxylic acid (3-amino-3,4,5,6-tetrahydro-2H-[1,4′]bipyridinyl-3′-yl)-amide]",< 1 µM,< 1 µM,< 1 µM,,,
"NC1CC(C(F)(F)F)CN(c2ccncc2NC(=O)c2nc(-c3ccccc3F)ccc2F)C1 (stereo not drawn) [Example 280, 3-Fluoro-6-(2-fluoro-phenyl)-pyridine-2-carboxylic acid (3-amino-5-trifluoromethyl-3,4,5,6-tetrahydro-2H-[1,4′]bipyridinyl-3′-yl)-amide]",< 1 µM,< 1 µM,< 1 µM,,,
"Nc1ccc(-c2c(F)cccc2F)nc1C(=O)Nc1cnccc1N1CC[C@@H]2OC(=O)N[C@@H]2C1 [Example 303, 3-Amino-6-(2,6-difluoro-phenyl)-pyridine-2-carboxylic acid [4-(2-oxo-hexahydro-oxazolo[4,5-c]pyridin-5-yl)-pyridin-3-yl]-amide]",< 1 µM,< 1 µM,< 1 µM,,,
"COc1ccc(-c2ccc(N)c(C(=O)Nc3cnccc3N3CCC[C@H](N)C3)n2)nc1 [Example 696, 5-Amino-5′-methoxy-[2,2′]bi-pyridinyl-6-carboxylic acid (3-amino-3,4,5,6-tetrahydro-2H-[1,4′]bipyridinyl-3′-yl)-amide]",,,,< 1 µM,< 1 µM,< 1 µM
"CCc1ccnc(-c2ccc(N)c(C(=O)Nc3cnccc3N3CCC[C@H](N)C3)n2)c1 [Example 717, 5-Amino-4′-ethyl-[2,2′]bi-pyridinyl-6-carboxylic acid (3-amino-3,4,5,6-tetrahydro-2H-[1,4′]bipyridinyl-3′-yl)-amide]",,,,< 1 µM,< 1 µM,< 1 µM
"Nc1ncc(-c2cccc(C(=O)N3CCOCC3)c2)nc1C(=O)Nc1ccccc1N1CCNCC1 [Example 398, 3-amino-6-[3-(morpholine-4-carbonyl)-phenyl]-pyrazine-2-carboxylic acid (2-piperazin-1-yl-phenyl)-amide]",10 to 25 µM,1 to 10 µM,1 to 10 µM,,,
"CC1(N)CCCN(c2ccncc2NC(=O)c2nc(-c3ccccc3F)ncc2N)C1 (stereo not drawn) [Example 676, 5-Amino-2-(2-fluoro-phenyl)-pyrimidine-4-carboxylic acid (3-amino-3-methyl-3,4,5,6-tetrahydro-2H-[1,4′]bi-pyridinyl-3′-yl)-amide]",,,,< 1 µM,< 1 µM,< 1 µM
"Cc1nc(N)ncc1-c1ccc(N)c(C(=O)Nc2cnccc2N2CCC[C@H](N)C2)n1 [Example 409, 3-amino-6-(2-amino-4-methyl-pyrimidin-5-yl)-pyridine-2-carboxylic acid ((S)-3-amino-3,4,5,6-tetrahydro-2H-[1,4′]bi-pyridinyl-3′-yl)-amide]",< 1 µM,< 1 µM,< 1 µM,,,
"CC(C)NC(=O)c1ccc(F)c(-c2ccc(N)c(C(=O)Nc3cnccc3N3CC[C@@H](N)[C@H](O)C3)n2)c1 [Example 668, 3-Amino-6-(2-fluoro-5-isopropylcarbamoyl-phenyl)-pyridine-2-carboxylic acid (4-amino-3-hydroxy-3,4,5,6-tetra-hydro-2H-[1,4′]bipyridinyl-3′-yl)-amide]",,,,< 1 µM,< 1 µM,< 1 µM
"Cc1nc(N)cc(-c2ccncc2NC(=O)c2nc(-c3ccccc3F)ncc2N)n1 [Example 272, 5-Amino-2-(2-fluoro-phenyl)-pyrimidine-4-carboxylic acid [4-(6-amino-2-methyl-pyrimidin-4-yl)-pyridin-3-yl]-amide]",< 1 µM,< 1 µM,< 1 µM,,,
"COc1cnccc1-c1ccncc1NC(=O)c1nc(-c2ccccc2F)ccc1N [Example 610, 3-amino-6-(2-fluorophenyl)-N-(3′-methoxy-4,4′-bipyridin-3-yl)pyridine-2-carboxamide]",,,,< 1 µM,< 1 µM,< 1 µM
"CCOc1cncc(-c2ccc(N)c(C(=O)Nc3cnccc3N3CCC[C@H](N)C3)n2)n1 [Example 749, 3-Amino-6-(6-ethoxy-pyrazin-2-yl)-pyridine-2-carboxylic acid (3-amino-3,4,5,6-tetrahydro-2H-[1,4′]bipyridinyl-3′-yl)-amide]",,,,< 1 µM,< 1 µM,< 1 µM
"Cc1ccc(N)c(C(=O)Nc2cnccc2N2CCC[C@H](N)C2)n1 [Example 637, 3-amino-N-{4-[(3S)-3-aminopiperidin-1-yl]pyridin-3-yl}-6-methylpyridine-2-carboxamide]",,,,< 1 µM,< 1 µM,< 1 µM
"CC(C)NC(=O)c1ccc(F)c(-c2ccc(N)c(C(=O)Nc3cnccc3N3CC[C@@H](F)[C@H](N)C3)n2)c1F [Example 733, 3-Amino-6-(2,6-difluoro-3-isopropylcarbamoyl-phenyl)-pyridine-2-carboxylic acid (3-amino-4-fluoro-3,4,5,6-tetra-hydro-2H-[1,4′]bipyridinyl-3′-yl)-amide]",,,,< 1 µM,< 1 µM,< 1 µM
"Nc1ccc(-c2cccc[n+]2[O-])nc1C(=O)Nc1cnccc1N1CCC[C@H](N)C1 [Example 693, 5-Amino-1′-oxy-[2,2′]bi-pyridinyl-6-carboxylic acid (3-amino-3,4,5,6-tetrahydro-2H-[1,4′]bipyridinyl-3′-yl)-amide]",,,,< 1 µM,< 1 µM,< 1 µM
"CC(C)Oc1cncc(-c2ccc(N)c(C(=O)Nc3cnccc3N3CCC[C@H](N)C3)n2)n1 [Example 748, 3-Amino-6-(6-isopropoxy-pyrazin-2-yl)-pyridine-2-carboxylic acid (3-amino-3,4,5,6-tetrahydro-2H-[1,4′]bi-pyridinyl-3′-yl)-amide]",,,,< 1 µM,< 1 µM,< 1 µM
